Where two headings read alike, the source gives them in different places.
Assays:
in vivo = settings: female, CB-17 SCID, mouse; for MRT last: MRTlast
[1] = cited from earlier work; for frequency of achieving ≥75% inhibition of one of four key biomarkers (p-EGFR, p-ErbB2, p-ERK1/2, p-AKT): tumor
[2] = rats; ref EGF10027 protocol, CIB RM2000/00481/06; cited from earlier work
[3] = design: method as in RM2005/00018/00 (Study EGF20008); settings: single agent, heavily pre-treated population; ref RM2005/00018/00 (Study EGF20008); cited from earlier work
plasma albumin = test system: plasma albumin; design: method as in printed; settings: ref not given; cited from earlier work
[4] = kidney, oral, 100 mg/kg, Concentration, individual animals 1-3, kidney, 100 mg/kg BID
[5] = kidney, oral, 100 mg/kg, single dose
[6] = kidney, oral, 200 mg/kg, single dose
[7] = kidney, oral, 200 mg/kg, Concentration, individual animals 1-3, kidney, 200 mg/kg QD
[8] = kidney, po, 100 mg/kg, 100 mg/kg BID, multiple doses
[9] = kidney, po, 200 mg/kg, 200 mg/kg QD, multiple doses
[10] = liver, oral, 100 mg/kg, single dose
[11] = liver, oral, 100 mg/kg, Concentration, individual animals 1-3, liver, 100 mg/kg BID
[12] = liver, oral, 200 mg/kg, single dose
[13] = liver, oral, 200 mg/kg, Concentration, individual animals 1-3, liver, 200 mg/kg QD
[14] = liver, po, 100 mg/kg, 100 mg/kg BID, multiple doses
[15] = liver, po, 200 mg/kg, 200 mg/kg QD, multiple doses
[16] = tumor, oral, 100 mg/kg, Concentration, individual animals 1-3, tumor, 100 mg/kg BID
[17] = tumor, oral, 200 mg/kg, Concentration, individual animals 1-3, tumor, 200 mg/kg QD

Structure (SMILES): CS(=O)(=O)CCNCc1ccc(-c2ccc3ncnc(Nc4ccc(OCc5cccc(F)c5)c(Cl)c4)c3c2)o1 [lapatinib]
- concentration at 72 h (in vivo; [4]): 94.5 ng/mL
- concentration at 96 h (in vivo; [4]): 47.9 ng/mL
- MRT last (in vivo; [5]): 7.7 h
- Tmax (in vivo; [5]): 1 h
- AUC(0-t) (in vivo; kidney, oral, 200 mg/kg, AUClast, single dose): 633 µg·h/mL
- Cmax (in vivo; [6]): 64900 ng/mL
- concentration at 1 h (in vivo; [7]): 48300 ng/mL
- concentration at 24 h (in vivo; kidney, oral, 200 mg/kg, Concentration, individual animals 1-3, kidney, 200 mg/kg QD, 24 h): 144 ng/mL
- concentration at 72 h (in vivo; [7]): 77.3 ng/mL
- concentration at 96 h (in vivo; [7]): 49.9 ng/mL
- MRT last (in vivo; [6]): 9 h
- Tmax (in vivo; [6]): 12 h
- AUC(0-t) (in vivo; kidney, po, 100 mg/kg, AUClast, 100 mg/kg BID, multiple doses): 1170 µg·h/mL
- Cmax (in vivo; [8]): 98500 ng/mL
- MRT last (in vivo; [8]): 8.4 h
- Tmax (in vivo; [8]): 10 h
- AUC(0-t) (in vivo; kidney, po, 200 mg/kg, AUClast, 200 mg/kg QD, multiple doses): 1320 µg·h/mL
- Cmax (in vivo; [9]): 136000 ng/mL
- MRT last (in vivo; [9]): 8 h
- Tmax (in vivo; [9]): 10 h
- AUC(0-t) (in vivo; liver, oral, 100 mg/kg, AUClast, single dose): 414 µg·h/mL
- Cmax (in vivo; [10]): 46700 ng/mL
- concentration at 1 h (in vivo; [11]): 107000 ng/mL
- concentration at 4 h (in vivo; [11]): 90700 ng/mL
- concentration at 48 h (in vivo; [11]): 193 ng/mL
- concentration at 72 h (in vivo; [11]): 121 ng/mL
- concentration at 96 h (in vivo; [11]): 66.9 ng/mL
- MRT last (in vivo; [10]): 7.5 h
- Tmax (in vivo; [10]): 1 h
- AUC(0-t) (in vivo; liver, oral, 200 mg/kg, AUClast, single dose): 1050 µg·h/mL
- Cmax (in vivo; [12]): 110000 ng/mL
- concentration at 1 h (in vivo; [13]): 137000 ng/mL
- concentration at 4 h (in vivo; [13]): 223000 ng/mL
- concentration at 48 h (in vivo; [13]): 173 ng/mL
- concentration at 72 h (in vivo; [13]): 101 ng/mL
- concentration at 96 h (in vivo; [13]): 98.3 ng/mL
- MRT last (in vivo; [12]): 9.4 h
- Tmax (in vivo; [12]): 12 h
- AUC(0-t) (in vivo; liver, po, 100 mg/kg, AUClast, 100 mg/kg BID, multiple doses): 1380 µg·h/mL
- Cmax (in vivo; [14]): 119000 ng/mL
- MRT last (in vivo; [14]): 8 h
- Tmax (in vivo; [14]): 10 h
- AUC(0-t) (in vivo; liver, po, 200 mg/kg, AUClast, 200 mg/kg QD, multiple doses): 2110 µg·h/mL
- Cmax (in vivo; [15]): 240000 ng/mL
- MRT last (in vivo; [15]): 8.4 h
- Tmax (in vivo; [15]): 10 h
- half-life (in vivo; tumor, oral): 15.6 h
- concentration at 4 h (in vivo; [16]): 51400 ng/mL
- concentration at 10 h (in vivo; [16]): 59200 ng/mL
- concentration at 4 h (in vivo; [17]): 47400 ng/mL
- concentration at 10 h (in vivo; [17]): 71800 ng/mL
- AUC(0-t) (in vivo; tumor, po, 100 mg/kg, AUC 0–12, tumor, median (range), n = 3, after fifth dose of 100 mg/kg BID): 396 µM·h
- AUC(0-t) (in vivo; tumor, po, 200 mg/kg, AUC 0–24, tumor, median (range), n = 3, after third dose of 200 mg/kg QD): 1950 µM·h
- half-life (in vivo; whole blood, oral): 3.9 h
- AUC(0-t) (in vivo; whole blood, po, 100 mg/kg, AUC 0–12, blood, median (range), n = 3, after fifth dose of 100 mg/kg BID): 104 µM·h
- AUC(0-t) (in vivo; whole blood, po, 200 mg/kg, AUC 0–24, blood, median (range), n = 3, after third dose of 200 mg/kg QD): 739 µM·h
- incidence of rash ([1]; cancer patients, preliminary, ref study EGF10004): 12%
- maximum tolerated dose (not reached at maximum dose given) ([1]; patients, ref preliminary analysis of EGF10004): > 1800 mg/day
- frequency of achieving ≥75% inhibition of one of four key biomarkers (p-EGFR, p-ErbB2, p-ERK1/2, p-AKT) ([1]; 500 mg once daily, ref study EGF10004, listed as GW572016): 29%
- frequency of achieving ≥75% inhibition of one of four key biomarkers (p-EGFR, p-ErbB2, p-ERK1/2, p-AKT) ([1]; 650 mg once daily, ref study EGF10004, listed as GW572016): 50%
- frequency of achieving ≥75% inhibition of one of four key biomarkers (p-EGFR, p-ErbB2, p-ERK1/2, p-AKT) ([1]; 900 mg once daily, ref study EGF10004, listed as GW572016): 44%
- frequency of achieving ≥75% inhibition of one of four key biomarkers (p-EGFR, p-ErbB2, p-ERK1/2, p-AKT) ([1]; 1200 mg once daily, ref study EGF10004): 75%
- frequency of achieving ≥75% inhibition of one of four key biomarkers (p-EGFR, p-ErbB2, p-ERK1/2, p-AKT) ([1]; 1600 mg once daily, ref study EGF10004, listed as GW572016): 83%
- single intravenous dose with no deaths [2]: ≤ 21 mg/kg
- single oral dose with no deaths [2]: up to 2,000 mg/kg
- clinical benefit response rate [3]: 6%
- binding to plasma albumin (plasma albumin): > 99%
